Literature values, collected in patent publication US20250214928A1 (priority 2023, published 2025).

Experiments:
[1] = test system: kainic acid-induced status epilepticus model; conditions: mouse study, ref. [5]
[2] = test system: tumor-specific antigens (CEA, CA 19/9, CA 125, prostate-specific antigen); conditions: meta-analysis of phase I/II trials, over 400 patients, dose-dependent, ref. [9]

CNC(=O)[C@@H](NC(=O)[C@H](CC(C)C)[C@H](O)C(=O)NO)C(C)(C)C [marimastat, (2R,3S)-N-1-((S)-3,3-dimethyl-1-methylamino-1-oxobutan-2-yl)-N-4,3-dihydroxy-2-isobutylsuccinamide]
duration of seizures [1]: reduced | number of seizures [1]: reduced | growth indicators of tumor-specific antigens (all four) [2]: significantly reduced
